Here are results for eight compounds from ChEMBL document CHEMBL1201862, “PubChem BioAssay data set” (2004).

The structures appear in SMILES notation.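 Five concentrations, 48 hours, 96-well plates. GI50: concentration for 50% inhibition of growth.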 Active and inactive are the calls of the source. Rule as the data show it: active = GI50 up to about 1.1 µM and inactive = higher.

Experiment in all cases: inhibition of tumour cell growth, NCI panel, 48 h
Test [1] concerns A549.
Test [2] concerns DLD-1.
The subject of test [3] is HCT-15.
Test [4] relates to HL-60.
In test [5] the test system is HOP-92.
In test [6] the test system is HT-29.
Test [7] deals with K562.
Test [8] has as its system MOLT-4.
The subject of test [9] is OVCAR-4.
The test system of test [10] is OVCAR-5.
The test system of test [11] is RPMI-8226.
Test [12] relates to SN12C.
In test [13] the test system is TK-10.
For test [14], the system named is MDA-N.
Test [15] has as its system NCI/ADR-RES.
For test [16], the system named is RXF 393.
The subject of test [17] is SK-MEL-28.
In test [18] the test system is SNB-75.
Test [19] deals with SR.
The subject of test [20] is T47D.

With `C=C1CCC23CC(CC[C@@H]2[C@@]12C[C@@H](c1ccoc1)OC2=O)OC3=O` (stereo partly specified), the GI50 in [1] was > 100 µM (inactive); in test [2], > 100 µM (inactive); in [3], above 100 µM; in test [4], > 100 µM (inactive); in [5] it was > 100 µM (inactive); in [6], > 100 µM (inactive). In addition, the GI50 in test [7], in test [8], in test [9], in test [10], in test [11] and in test [12] was > 100 µM (inactive) throughout. Further, in test [13], the GI50 was > 100 µM (inactive).
Consider `N/C(=N\Nc1nc2cc([N+](=O)[O-])ccc2o1)c1ccccn1`, for which the GI50 was 0.163 µM (active) in [1]; 0.0287 µM in test [3]; 0.0594 µM (active) in test [4]; 0.242 µM (active) in [5]; 0.0493 µM (active) in [6]; 0.0673 µM (active) in test [7]. The GI50 in test [14] was 0.189 µM (active); in test [8] it was 0.0621 µM (active); in [15], 0.0404 µM (active); in [9], 0.179 µM (active); in test [10], 0.137 µM (active); in [11], 0.123 µM (active). Besides, the GI50 in test [16] was 0.0622 µM (active); in test [17] it was 0.222 µM (active); in test [12], 0.189 µM (active); in test [18], 0.817 µM (active); in test [19] it was 0.013 µM (active); in test [20] it was 0.073 µM (active). Moreover, the GI50 in test [13] is 0.193 µM (active).
For `O=CNNC(=O)CSc1nc2ccc(I)cc2c(=O)n1Cc1ccccc1`, the GI50 was 37.4 µM (inactive) in [1]; 40.7 µM in [3]; 47.5 µM (inactive) in [4]; 25.4 µM (inactive) in test [5]; 34.9 µM (inactive) in test [6]; 8.79 µM (inactive) in [7]. The GI50 in test [14] is 32.3 µM (inactive); in test [8] it was 0.361 µM (active); in test [15], 31.3 µM (inactive); in test [9] it was 40.4 µM (inactive); in test [10] it was 61.8 µM (inactive); in [11], < 0.01 µM (active). In addition, the GI50 in [16] is 29.1 µM (inactive); in test [17], 79.8 µM (inactive); in test [12], 28.4 µM (inactive); in test [18], 45 µM (inactive); in test [19], 32.2 µM (inactive); in [20], 33.4 µM (inactive). For the same compound, the GI50 in test [13] was 38.6 µM (inactive).
Take `CC(C)(Cl)C(Br)CC/C(CBr)=C(/Cl)CCl.CC(C)(Cl)C(Br)CC/C(CBr)=C(\Cl)CCl` (stereo unspecified): the GI50 in test [1] was > 10 µM (inactive); in test [3], 2.29 µM; in test [4], 0.94 µM (active); in [5], 1.9 µM (inactive); in [6], 2.06 µM (inactive); in test [7], 1.01 µM (active). The GI50 in [14] was 1.8 µM (inactive); in [8], 0.417 µM (active); in test [15], 2.21 µM (inactive); in test [9], 2.74 µM (inactive); in [10], 5.13 µM (inactive); in test [11], 1.64 µM (inactive). Besides, the GI50 in test [16] was 2.14 µM (inactive); in test [17] it was 2.11 µM (inactive); in [12] it was 0.497 µM (active); in [18], 2.74 µM (inactive); in [19] it was 0.331 µM (active); in test [20], 2.32 µM (inactive). Besides, the GI50 in [13] was 4.18 µM (inactive).
On to `COn1cc(CO)c2ccccc21`, for which the GI50 is > 62.1 µM (inactive) in test [1]; above 88.7 µM in [3]; 31.3 µM (inactive) in test [4]; > 61.2 µM (inactive) in test [5]; > 58.5 µM (inactive) in [6]; 31.2 µM (inactive) in test [7]. In addition, the GI50 in test [14] was 97.5 µM (inactive); in test [8], 28.8 µM (inactive); in [15], > 90.8 µM (inactive); in [9], 34 µM (inactive); in test [10], 7.96 µM (inactive); in [11] it was 66.5 µM (inactive). Moreover, the GI50 in test [16] was 21.5 µM (inactive); in [17] it was > 100 µM (inactive); in test [12], > 84.7 µM (inactive); in test [18] it was > 100 µM (inactive); in test [19], 31.8 µM (inactive); in [20], 30.8 µM (inactive). Moreover, the GI50 in test [13] was 5.96 µM (inactive).
Take `CC(C(O)c1ccccc1)C(O)(C(F)(F)F)C(F)(F)F` (stereo unspecified): the GI50 in [1] was > 100 µM (inactive); in test [3] it was above 100 µM; in test [4] it was > 100 µM (inactive); in test [5], 50.8 µM (inactive); in [6] it was > 100 µM (inactive); in test [7], > 100 µM (inactive). For the same compound, the GI50 in test [14], in [8], in test [15], in test [9], in [10] and in [11] was > 100 µM (inactive) throughout. The GI50 in test [16] was > 100 µM (inactive); in test [17] it was > 100 µM (inactive); in [12], > 100 µM (inactive); in test [18], 65.3 µM (inactive); in [19], > 100 µM (inactive); in [20] it was > 100 µM (inactive). Also, the GI50 in test [13] is > 100 µM (inactive).
As to `COc1ccc(C(C#N)NCCCCCCNC(C#N)c2ccc(OC)cc2)cc1` (stereo unspecified), the GI50 is > 100 µM (inactive) in test [1]; above 100 µM in test [3]; > 100 µM (inactive) in test [4]; > 100 µM (inactive) in test [5]; > 100 µM (inactive) in [6]; > 100 µM (inactive) in [7]. For the same compound, the GI50 in test [14], in test [8], in test [15], in test [9], in [10] and in test [11] was > 100 µM (inactive) each time. Moreover, the GI50 in [16], in [17], in test [12], in [18], in test [19] and in [20] was > 100 µM (inactive) each time. In addition, the GI50 in [13] was > 100 µM (inactive).
Take `C#C[C@]1(O)CC[C@H]2[C@@H]3CCC4=C/C(=N\OCCN(CC)CC)CC[C@]4(C)[C@H]3CC[C@@]21C`: the GI50 in [1] is 5.77 µM (inactive); in test [3] it was 5.6 µM; in [4], 0.586 µM (active); in test [5], 16.5 µM (inactive); in test [6] it was 3.74 µM (inactive); in test [7] it was 3.09 µM (inactive). In addition, the GI50 in test [14] was 2.18 µM (inactive); in test [8], 0.122 µM (active); in test [15], 2.59 µM (inactive); in [9], 12.5 µM (inactive); in test [10] it was 12.9 µM (inactive); in test [11] it was 2.53 µM (inactive). In addition, the GI50 in test [16] is 2.41 µM (inactive); in test [17], 7.66 µM (inactive); in test [12] it was 9.12 µM (inactive); in test [18], 3.05 µM (inactive); in test [19], 2.94 µM (inactive); in test [20], 6.3 µM (inactive). Also, the GI50 in [13] is 6.7 µM (inactive).
